Assay [1] concerns the target T1, human Focal Adhesion Kinase (FAK) (Homo sapiens, UniProt Q05397).
T1 construct: FAK (full length human cDNA described by Andre et al); made in house; host or cells: Sf21 insect cells, baculovirus (pFastbac 1); cleared cell lysate used as enzyme stock
Briefly: FAK3 Kinase Inhibition Assay (in vitro enzyme assay). It counts as biochemical. As to conditions: read-out: FAK inhibitory activity IC50. From the text: FAK3 Kinase Inhibition Assay
This assay determines the ability of a test compound to inhibit tyrosine kinase activity of human Focal Adhesion Kinase (FAK).
Active FAK protein has been previously expressed in a baculovirus system using a similar N-terminal 6-histidine tag (Protein Expression And Purification, 1996, 7: 12–18). The human FAK cDNA was cloned into the baculovirus transplacement vector, pFastbac 1 (Life Technologies), and the recombinant construct was co-transfected into insect cells (for example Spodoptera frugiperda 21(Sf21)) with viral DNA to prepare recombinant baculovirus (details of the methods for the assembly of recombinant DNA molecules and the preparation and use of recominant baculovirus can be found in standard texts for example Sambrook et al, 1989, Molecular cloning-A Laboratory Manual, 2nd edition, Cold Spring Harbour Laboratory Press and O'Reilly et al, 1992, Baculovirus Expression Vectors-A Laboratory Manual, W. H. Freeman and Co, New York. Details specific to the use of the pFastbac (‘Bac to Bac’) system are provided in Anderson et al., 1995, FOCUS (Life Technologies Bulletin Magazine), 17, p53.)
For expression of biologically active human FAK protein, Sf21 cells were infected with plaque-pure FAK recombinant virus at a multiplicity of infection of 3 and harvested 48 hours later. […]

Assay [2] has as its target T2, CDK4/Cyclin D1 (Homo sapiens, UniProt P11802).
T2 construct: made in house; host or cells: Sf21 insect cells, baculovirus co-infection (pVL1393)
Nature of the assay: CDK4 Inhibition Assay (Scintillation Proximity Assay, GST-Retinoblastoma substrate). Format: biochemical. As to conditions: in vitro kinase assay, 0.2 μM ATP; read-out: CDK4 inhibitory activity IC50. How it is done: The compounds were tested in an in vitro kinase assay in 96 well format using Scintillation Proximity Assay (SPA-obtained from Amersham) for measuring incorporation of [γ-33-P]-Adenosine Triphosphate into a test substrate (GST-Retinoblastoma). In each well was placed the compound to be tested (diluted in DMSO and water to correct concentrations) and in control wells either p16 as an inhibitor control or DMSO as a positive control.
Approximately 0.5 μl of CDK4/Cyclin D1 partially-purified enzyme (amount dependent on enzyme activity) diluted in 25 μl incubation buffer was added to each well then 20 μl of GST-Rb/ATP/ATP33 mixture (containing 0.5 μg GST-Rb and 0.2 μM ATP and 0.14 μCi [γ-33-P]-Adenosine Triphosphate), and the resulting mixture shaken gently, then incubated at room temperature for 60 minutes.
To each well was then added 150 μL stop solution containing (0.8 mg/well of Protein A-PVT SPA bead (Amersham)), 20 pM/well of Anti-Glutathione Transferase, Rabbit IgG (obtained from Molecular Probes), 61 mM EDTA and 50 mM HEPES pH 7.5 containing 0.05% sodium azide.
The plates were sealed with Topseal-S plate sealers, left for two hours then spun at 2500 rpm, 1124 xg., for 5 minutes. The plates were read on a Topcount for 30 seconds per well. […]

pIC50: −log10 of the molar value.

Usually pIC50 stands for the negative decadic logarithm of the IC50, by convention in mol/L.

T1 sequence (Q05397 whole entry): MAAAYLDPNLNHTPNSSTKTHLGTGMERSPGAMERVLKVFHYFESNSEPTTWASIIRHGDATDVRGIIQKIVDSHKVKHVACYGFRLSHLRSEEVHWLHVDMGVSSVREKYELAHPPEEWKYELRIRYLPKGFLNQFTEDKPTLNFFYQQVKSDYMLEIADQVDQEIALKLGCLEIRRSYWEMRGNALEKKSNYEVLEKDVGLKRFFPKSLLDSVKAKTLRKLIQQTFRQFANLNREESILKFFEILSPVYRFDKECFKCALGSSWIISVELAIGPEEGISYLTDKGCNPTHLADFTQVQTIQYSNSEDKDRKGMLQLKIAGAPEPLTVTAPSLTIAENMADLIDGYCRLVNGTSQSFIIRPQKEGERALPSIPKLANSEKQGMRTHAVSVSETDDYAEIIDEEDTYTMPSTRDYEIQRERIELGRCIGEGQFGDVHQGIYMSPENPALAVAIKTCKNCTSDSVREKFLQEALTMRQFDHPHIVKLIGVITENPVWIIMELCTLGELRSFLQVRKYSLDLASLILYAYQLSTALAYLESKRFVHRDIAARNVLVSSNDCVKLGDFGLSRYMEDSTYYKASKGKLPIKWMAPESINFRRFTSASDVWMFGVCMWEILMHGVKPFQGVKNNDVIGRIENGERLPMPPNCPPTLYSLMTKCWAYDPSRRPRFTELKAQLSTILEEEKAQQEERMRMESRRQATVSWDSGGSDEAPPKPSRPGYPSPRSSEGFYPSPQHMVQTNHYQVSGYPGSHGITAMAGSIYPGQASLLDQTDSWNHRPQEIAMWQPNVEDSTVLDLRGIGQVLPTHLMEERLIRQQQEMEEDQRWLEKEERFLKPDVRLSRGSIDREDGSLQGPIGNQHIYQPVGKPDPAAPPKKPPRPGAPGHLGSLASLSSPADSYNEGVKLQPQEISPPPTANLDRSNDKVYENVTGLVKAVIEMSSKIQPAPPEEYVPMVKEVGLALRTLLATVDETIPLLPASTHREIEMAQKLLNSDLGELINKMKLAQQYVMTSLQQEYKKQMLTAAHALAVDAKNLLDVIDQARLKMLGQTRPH
T2 sequence (P11802 whole entry): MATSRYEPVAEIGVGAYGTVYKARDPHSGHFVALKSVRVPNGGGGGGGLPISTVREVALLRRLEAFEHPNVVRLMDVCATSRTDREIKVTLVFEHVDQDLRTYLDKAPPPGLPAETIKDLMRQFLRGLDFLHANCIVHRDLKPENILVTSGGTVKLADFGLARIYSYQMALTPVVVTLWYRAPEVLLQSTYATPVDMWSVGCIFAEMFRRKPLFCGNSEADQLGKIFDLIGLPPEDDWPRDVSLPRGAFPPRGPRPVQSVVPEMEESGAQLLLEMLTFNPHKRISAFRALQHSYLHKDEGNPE
T2 sequence (P24385 whole entry partner): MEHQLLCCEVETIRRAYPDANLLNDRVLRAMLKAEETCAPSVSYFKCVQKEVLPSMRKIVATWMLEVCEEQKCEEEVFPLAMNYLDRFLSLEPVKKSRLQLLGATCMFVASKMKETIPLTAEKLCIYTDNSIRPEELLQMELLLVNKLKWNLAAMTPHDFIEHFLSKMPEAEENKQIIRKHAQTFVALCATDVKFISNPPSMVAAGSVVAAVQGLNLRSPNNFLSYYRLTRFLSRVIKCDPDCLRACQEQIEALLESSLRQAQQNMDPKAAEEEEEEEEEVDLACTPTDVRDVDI

As to `CCN(CC)CCOc1ccc(Nc2ncc(Br)c(Nc3ccccc3)n2)cc1` [Example 25], the pIC50 in assay [1] was 6.66.

On to `OCCOCc1ccc(Nc2ncc(Br)c(Nc3ccccc3)n2)cc1` [Example 31, 4-Anilino-5-bromo-2-[4-(2-hydroxyethoxy)methylanilino]pyrimidine], for which the negative logarithm of the IC50 (pIC50) in assay [2] was 6.17.

(Values after patent publication US7067522B2, “2,4,DI (hetero-) arylamino (-oxy)-5-substituted pyrimidines as antineoplastic agents” (AstraZeneca AB, priority 2000, dated 2006).)
